We go through 24 compounds from patent US6313153A, “Compositions and methods for treating nephritis and inhibiting TGF -β related conditions using pyridylacrylamide derivatives” (Tsumura & Co., priority 1997, dated 2001).

This test deals with anti-GBM nephritic mice. Kind of test: anti-GBM nephritic mice: proteinuria, serum cholesterol, blood urea nitrogen and serum creatinine.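 On Proteinuria 10th day: minus not effective plus trend double p<0.05 triple p<0.01 quadruple p<0.001 improvement vs control.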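 On Proteinuria 5th day: minus not effective plus trend double p<0.05 triple p<0.01 quadruple p<0.001 improvement vs control.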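 On Serum Parameter BUN (blood urea nitrogen): minus not effective plus trend double p<0.05 triple p<0.01 quadruple p<0.001 improvement vs control.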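 On Serum Parameter S-Ch (serum cholesterol): minus not effective plus trend double p<0.05 triple p<0.01 quadruple p<0.001 improvement vs control.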 The format is in vivo, BALB/c mice. Conditions: for Total Evaluation: 3 × (number of + in proteinuria) + (number of + in serum parameter); for Proteinuria 5th day: 5th day from intravenous injection of anti-GBM serum; for Proteinuria 5th day / Proteinuria 10th day / Serum Parameter BUN (blood urea nitrogen) / Serum Parameter S-Ch (serum cholesterol) / Serum Parameter S-Cr (serum creatinine): oral; for Proteinuria 10th day: 10th day from intravenous injection of anti-GBM serum; for Serum Parameter BUN (blood urea nitrogen) / Serum Parameter S-Ch (serum cholesterol) / Serum Parameter S-Cr (serum creatinine): 11th day.

With `CCOC(=O)COc1cccc(CCNC(=O)/C=C/c2cccnc2)c1` [Compound 100], the “Total Evaluation” value turned out to be 6, the “Proteinuria 5th day” value is reported as “-”, the “Proteinuria 10th day” value is recorded as “+” and the “Serum Parameter BUN (blood urea nitrogen)” value (“Serum Parameter BUN” below) is recorded as “+”. Besides, the “Serum Parameter S-Ch (serum cholesterol)” value is given as “+” and the “Serum Parameter S-Cr (serum creatinine)” value is “+”.

In the case of `O=C(/C=C/c1cccnc1)NCc1ccc(O)cc1` [Compound 45], the “Total Evaluation” value is recorded as 10, the “Proteinuria 5th day” value is on record as “++”, the “Proteinuria 10th day” value was “+” and the “Serum Parameter BUN” value is “-”. Also, the “Serum Parameter S-Ch (serum cholesterol)” value was “+” and the “Serum Parameter S-Cr (serum creatinine)” value is recorded as “-”.

As to `CSc1ccc(CCN(C)C(=O)/C=C/c2cccnc2)cc1` [Compound 53], the “Total Evaluation” value was 6, the “Proteinuria 5th day” value is given as “-”, the “Proteinuria 10th day” value is “+” and the “Serum Parameter BUN” value was “-”. The “Serum Parameter S-Ch (serum cholesterol)” value was “-” and the “Serum Parameter S-Cr (serum creatinine)” value is on record as “+++”.

As for `O=C(/C=C/c1cccnc1)NCCc1cccc(OCC(=O)NC2CCCC2)c1` [Compound 116], the “Total Evaluation” value was determined as 10, the “Proteinuria 5th day” value is recorded as “+”, the “Proteinuria 10th day” value is “+” and the “Serum Parameter BUN” value was “++”. Moreover, the “Serum Parameter S-Ch (serum cholesterol)” value is on record as “+” and the “Serum Parameter S-Cr (serum creatinine)” value was “+”.

In the case of `N#C/C(=C\c1cccnc1)C(=O)NCCc1cccc(O)c1` [Compound 8], the “Total Evaluation” value is recorded as 6, the “Proteinuria 5th day” value is reported as “-”, the “Proteinuria 10th day” value is reported as “++” and the “Serum Parameter BUN” value is listed as “-”. Moreover, the “Serum Parameter S-Ch (serum cholesterol)” value is “-” and the “Serum Parameter S-Cr (serum creatinine)” value was “-”.

As to `CCNC(=O)Oc1ccc(CCN(C)C(=O)/C=C/c2cccnc2)cc1OC(=O)NCC` [Compound 133], the “Total Evaluation” value is given as 9, the “Proteinuria 5th day” value is on record as “+”, the “Proteinuria 10th day” value was “+” and the “Serum Parameter BUN” value was “+”. Also, the “Serum Parameter S-Ch (serum cholesterol)” value was “+” and the “Serum Parameter S-Cr (serum creatinine)” value is given as “+”.

Consider `O=C(/C=C/c1cccnc1)NCCc1ccc(O)cc1` [Compound 71], for which the “Total Evaluation” value is on record as 17, the “Proteinuria 5th day” value is given as “+”, the “Proteinuria 10th day” value is “+++” and the “Serum Parameter BUN” value was “++”. The “Serum Parameter S-Ch (serum cholesterol)” value was “-” and the “Serum Parameter S-Cr (serum creatinine)” value was “++”.

In the case of `COc1ccc(CN(C)C(=O)/C=C/c2cccnc2)cc1OC` [Compound 20], the “Total Evaluation” value came out at 13, the “Proteinuria 5th day” value is on record as “++”, the “Proteinuria 10th day” value was “+” and the “Serum Parameter BUN” value is on record as “+”. The “Serum Parameter S-Ch (serum cholesterol)” value was “+” and the “Serum Parameter S-Cr (serum creatinine)” value was “++”.

`CCOC(=O)COc1cccc(C(O)CNC(=O)/C=C/c2cccnc2)c1` (stereo not drawn) [Compound 159, ethyl [3-[1-hydroxy-2-((E) -3-(3-pyridyl)acryloylamino]ethyl]phenoxy]acetate]: the “Total Evaluation” value was 10, the “Proteinuria 5th day” value is recorded as “++”, the “Proteinuria 10th day” value is on record as “+” and the “Serum Parameter BUN” value was “-”. Besides, the “Serum Parameter S-Ch (serum cholesterol)” value is “+” and the “Serum Parameter S-Cr (serum creatinine)” value was “-”.

As for `Cl.N#C/C(=C\c1cccnc1)C(=O)NCCc1ccc(O)cc1` [Compound 6, (E)-2-cyano-N-(4-hydroxyphenethyl)-3-(3-pyridyl)-2-propenoic acid amide hydrochloride], the “Total Evaluation” value turned out to be 16, the “Proteinuria 5th day” value was “++”, the “Proteinuria 10th day” value is “+++” and the “Serum Parameter BUN” value is given as “-”. Further, the “Serum Parameter S-Ch (serum cholesterol)” value was “+” and the “Serum Parameter S-Cr (serum creatinine)” value is recorded as “-”.

As for `CNC(=O)COc1cccc(CCNC(=O)/C=C/c2cccnc2)c1` [Compound 114, (E)-N-[3-[(methyl-carbamoyl)methoxy]phenethyl]-3-(3-pyridyl)-2-propenoic acid amide], the “Total Evaluation” value is 24, the “Proteinuria 5th day” value is “+++”, the “Proteinuria 10th day” value is on record as “+++” and the “Serum Parameter BUN” value is reported as “++”. Moreover, the “Serum Parameter S-Ch (serum cholesterol)” value was “+++” and the “Serum Parameter S-Cr (serum creatinine)” value was “+”.

With `COc1cc(C(=O)CN(C)C(=O)/C=C/c2cccnc2)ccc1O` [Compound 162, (E)-N-methyl-N-(3-methoxy-4-hydroxyphenacyl)-3-(3-pyridyl)-2-propenoic acid amide], the “Total Evaluation” value is reported as 13, the “Proteinuria 5th day” value is “+++”, the “Proteinuria 10th day” value was “+” and the “Serum Parameter BUN” value is reported as “-”. Further, the “Serum Parameter S-Ch (serum cholesterol)” value is given as “+” and the “Serum Parameter S-Cr (serum creatinine)” value is listed as “-”.

As to `CN(CCc1ccc(O)c(O)c1)C(=O)/C=C/c1cccnc1` [Compound 85, (E)-N-(3,4-dihydroxyphenethyl)-N-methyl-3-(3-pyridyl)-2-propenoic acid amide], the “Total Evaluation” value is given as 21, the “Proteinuria 5th day” value is given as “+++”, the “Proteinuria 10th day” value is given as “+++” and the “Serum Parameter BUN” value is reported as “+”. For the same compound, the “Serum Parameter S-Ch (serum cholesterol)” value is “++” and the “Serum Parameter S-Cr (serum creatinine)” value is on record as “-”.

In the case of `COc1cc(CCN(C)C(=O)/C=C/c2cccnc2)cc(OC)c1OC.Cl` [Compound 9, (E)-N-methyl-3-(3-pyridyl)-N-(3,4,5-trimethoxyphenethyl)-2-propenoic acid amide hydrochloride], the “Total Evaluation” value came to 12, the “Proteinuria 5th day” value is listed as “+”, the “Proteinuria 10th day” value is on record as “++” and the “Serum Parameter BUN” value is on record as “+”. Besides, the “Serum Parameter S-Ch (serum cholesterol)” value is given as “+” and the “Serum Parameter S-Cr (serum creatinine)” value is listed as “+”.

Consider `CCOC(=O)COc1cccc(C(=O)CNC(=O)/C=C/c2cccnc2)c1` [Compound 161], for which the “Total Evaluation” value worked out at 10, the “Proteinuria 5th day” value is listed as “++”, the “Proteinuria 10th day” value was “+” and the “Serum Parameter BUN” value is recorded as “-”. Also, the “Serum Parameter S-Ch (serum cholesterol)” value is “+” and the “Serum Parameter S-Cr (serum creatinine)” value is listed as “-”.

`COC(=O)COc1ccccc1CCNC(=O)/C=C/c1cccnc1` [Compound 102]: the “Total Evaluation” value amounted to 9, the “Proteinuria 5th day” value is “+”, the “Proteinuria 10th day” value is on record as “++” and the “Serum Parameter BUN” value was “-”. The “Serum Parameter S-Ch (serum cholesterol)” value was “-” and the “Serum Parameter S-Cr (serum creatinine)” value is on record as “-”.

Take `O=C(/C=C(/c1ccccc1)c1cccnc1)NCCc1cccc(O)c1` [Compound 93]: the “Total Evaluation” value was determined as 8, the “Proteinuria 5th day” value was “-”, the “Proteinuria 10th day” value is recorded as “-” and the “Serum Parameter BUN” value is “+++”. Moreover, the “Serum Parameter S-Ch (serum cholesterol)” value is given as “++” and the “Serum Parameter S-Cr (serum creatinine)” value is reported as “+++”.

With `COc1cccc(CCNC(=O)/C=C/c2cccnc2)c1` [Compound 41], the “Total Evaluation” value is 8, the “Proteinuria 5th day” value is reported as “+”, the “Proteinuria 10th day” value is “-” and the “Serum Parameter BUN” value is recorded as “-”. For the same compound, the “Serum Parameter S-Ch (serum cholesterol)” value was “+++” and the “Serum Parameter S-Cr (serum creatinine)” value was “++”.

Turning to `O=C(/C=C/c1cccnc1)NCCc1ccccc1O` [Compound 38], the “Total Evaluation” value was determined as 19, the “Proteinuria 5th day” value was “++”, the “Proteinuria 10th day” value was “+++” and the “Serum Parameter BUN” value is given as “+”. For the same compound, the “Serum Parameter S-Ch (serum cholesterol)” value is reported as “++” and the “Serum Parameter S-Cr (serum creatinine)” value is given as “+”.

For `COc1ccc(C(CN(C)C(=O)/C=C/c2cccnc2)=NO)cc1OC` [Compound 156, (E)-N-[2-(3,4-dimethoxyphenyl)-2-(hydroxyimino)ethyl]-N-methyl-3-(3-pyridyl)-2-propenoic acid amide], the “Total Evaluation” value turned out to be 7, the “Proteinuria 5th day” value is given as “+”, the “Proteinuria 10th day” value is listed as “+” and the “Serum Parameter BUN” value is “-”. Also, the “Serum Parameter S-Ch (serum cholesterol)” value is reported as “+” and the “Serum Parameter S-Cr (serum creatinine)” value is “-”.

In the case of `COc1cccc(CNC(=O)/C=C/c2cccnc2)c1` [Compound 42], the “Total Evaluation” value is 9, the “Proteinuria 5th day” value is recorded as “+”, the “Proteinuria 10th day” value is recorded as “+” and the “Serum Parameter BUN” value is “+”. Besides, the “Serum Parameter S-Ch (serum cholesterol)” value is on record as “-” and the “Serum Parameter S-Cr (serum creatinine)” value is “++”.

As for `COc1ccc(O)c(CCNC(=O)/C=C/c2cccnc2)c1` [Compound 50], the “Total Evaluation” value came out at 18, the “Proteinuria 5th day” value is listed as “++”, the “Proteinuria 10th day” value is given as “+++” and the “Serum Parameter BUN” value was “-”. For the same compound, the “Serum Parameter S-Ch (serum cholesterol)” value is “+++” and the “Serum Parameter S-Cr (serum creatinine)” value is given as “-”.

Take `O=C(/C=C/c1cccnc1)NCCc1cc(O)ccc1O` [Compound 89]: the “Total Evaluation” value is given as 15, the “Proteinuria 5th day” value is on record as “++”, the “Proteinuria 10th day” value is listed as “++” and the “Serum Parameter BUN” value is recorded as “+”. The “Serum Parameter S-Ch (serum cholesterol)” value is listed as “++” and the “Serum Parameter S-Cr (serum creatinine)” value was “-”.

Take `COc1cc(CCN(C)C(=O)/C=C/c2cccnc2)cc(OC)c1` [Compound 18]: the “Total Evaluation” value amounted to 13, the “Proteinuria 5th day” value is “+”, the “Proteinuria 10th day” value was “++” and the “Serum Parameter BUN” value was “++”. Further, the “Serum Parameter S-Ch (serum cholesterol)” value was “++” and the “Serum Parameter S-Cr (serum creatinine)” value is on record as “-”.
